Measured values taken from patent US6096725A, “Methods of using αGal oligosaccharides as immune system targeting agents” (Neose Technologies, Inc., priority 1997, dated 2000).

Tests used:
[1] = system: pig kidney endothelial cell line, PK-15; format: cell-based; settings: 240 min
Protocol: Sera were incubated with serial dilutions of αGal oligosaccharides at 37° C. for 1 hour, then added to αGal-expressing monolayers (pig kidney cells, PK-15) in Terasaki plates for 1 hour at 37° C. Cytotoxicity was mediated by either endogenous complement, or the sera were de-complemented (heat inactivated for 30 minutes at 56° C.) and exogenous (rabbit) complement was added. After washing away excess serum, the viable dye mix "live-dead" (calcein AM/ethidium homodimer (Molecular Probes Inc., Eugene Oreg.)) was added and monolayers were scored for viability by fluorescence microscopy.
The two xenotransplant baboons were outfitted with an indwelling catheter to the femoral vein to infuse compound and a catheter to the femoral artery for blood sampling. Following the transplant procedure, but just prior to providing circulatory access to the xenograft, the oligosaccharide was administered by i.v. pump through the catheter in a 15 min loading dose, followed by continuous 4 hour infusion to achieve 2.5 mM blood concentration (as determined by calculations presented in Table 2). […] Blood specimens collected for plasma were immediately centrifuged and the plasma withdrawn and stored frozen at -20° C. […] Arterial pressure was monitored in the recipient baboon by intermittent automatic cuff recordings.

[2] = design: species or system baboon; settings: in vivo
Protocol: (§1) The two xenotransplant baboons were outfitted with an indwelling catheter to the femoral vein to infuse compound and a catheter to the femoral artery for blood sampling. Following the transplant procedure, but just prior to providing circulatory access to the xenograft, the oligosaccharide was administered by i.v. pump through the catheter in a 15 min loading dose, followed by continuous 4 hour infusion to achieve 2.5 mM blood concentration (as determined by calculations presented in Table 2). […] Blood specimens collected for plasma were immediately centrifuged and the plasma withdrawn and stored frozen at -20° C. Blood specimens collected for serum were clotted at 4° C. overnight and the withdrawn serum frozen at -20° C. The αGal pentasaccharide was prepared according to the enzymatic methods set forth in example 6.2 and stored as a dry, white, solid powder. The oligosaccharide was dissolved in 250 mL sterile infusion grade saline to a concentration of 0.154 g/mL, or 177 mM. Induction anesthesia was with ketamine hydrochloride 5 mg/kg/body weight in and 0.5 mg/kg of xylazine iv. Intravenous fluid of approximately 20 ml/kg body weight was given during the course of the operative procedure through either a peripheral or central vein. Atropine 0.5 mg/kg was given iv. […] Arterial pressure was monitored in the recipient baboon by intermittent automatic cuff recordings.

anti-αGal antibody [3] = experiment: ELISA of reactive anti-αGal antibody in sera of xenotransplanted baboons; format: binding, baboon; settings: period during which serum concentration exceeded 1 mM; data not shown
Protocol: as §1, with “recordings. […]” for “recordings.”

[4] = system: mouse endothelial cell line, MAE; format: cell-based; settings: 240 min
anti-αGal antibody [5] = experiment: In vivo blood serum analysis: serum anti-αGal antibody neutralizing capacity in baboons; design: species or system baboon; settings: monovalent oligosaccharide
Excerpt: Pharmokinetics of αGal trisaccharides and αGal pentasaccharides in baboons. This example presents a study of the pharmokinetic profile and serum anti-αGal antibody neutralizing capacity in baboons of αGal trisaccharides and αGal pentasaccharides and previews the compounds' suitability for use in the prevention of hyperacute rejection of porcine organs xenotransplanted into baboons.
Three Baboons were outfitted with indwelling venous and arterial catheters to the femoral vessels, and held in place with the aid of a jacket. Oligosaccharides were administered through the catheter in a 15 minute continuous infusion.

[6] = system: mouse endothelial cell line MAE; experiment: Cytotoxicity of baboon serum against MAE cells with exogenously added αGal pentasaccharide; format: cell-based
Protocol: FIG. 4 Cytotoxicity of serum from a baboon receiving αGal pentasaccharide (αGal-LNnT) intravenously. Shaded circles represent cytotoxicity of serum as recovered from baboon against mouse endothelial cell line MAE. Other lines indicate varying concentrations of exogenously added αGal-pentasaccharide into cytotoxicity assay. Added concentrations of the αGal pentasaccharide are depicted as follows: 2.0 mM, open circle; 1.0 mM, ×; 0.5 mM, diamond; and 0.25 mM, open square. […] Sera were incubated with serial dilutions of αGal oligosaccharides at 37° C. for 1 hour, then added to αGal-expressing monolayers (pig kidney cells, PK-15) in Terasaki plates for 1 hour at 37° C. Cytotoxicity was mediated by either endogenous complement, or the sera were de-complemented (heat inactivated for 30 minutes at 56° C.) and exogenous (rabbit) complement was added. After washing away excess serum, the viable dye mix "live-dead" (calcein AM/ethidium homodimer (Molecular Probes Inc., Eugene Oreg.)) was added and monolayers were scored for viability by fluorescence microscopy. Three Baboons were outfitted with indwelling venous and arterial catheters to the femoral vessels, and held in place with the aid of a jacket. Oligosaccharides were administered through the catheter in a 15 minute continuous infusion.

For `CC(=O)N[C@H]1[C@H](O[C@H]2[C@@H](O)[C@@H](CO)O[C@@H](O[C@H]3[C@H](O)[C@@H](O)C(O)O[C@@H]3CO)[C@@H]2O)O[C@H](CO)[C@@H](O[C@@H]2O[C@H](CO)[C@H](O)[C@H](O[C@H]3O[C@H](CO)[C@H](O)[C@H](O)[C@H]3O)[C@H]2O)[C@@H]1O` (stereo partly shown) [αGal pentasaccharide, Galα1-3Galβ1-4GlcNAcβ1-3Galβ1-4Glc], the “Reduction of cytotoxicity of baboon sera against PK-15” value [1] was 85-95%, the “Blood concentration relative to prediction from earlier pharmacokinetic infusions” value [2] was “approximately twice what was predicted” and the “Reactive anti-αGal antibody titer by ELISA (mouse laminin, α-Gal-albumin neoglycoconjugates, PK-15 cells)” value (anti-αGal antibody [3]) was “pronounced reduction in the anti-αGal antibody titer”. The “Reduction of cytotoxicity of baboon sera against MAE cells” value [4] was 100%, the “Minimal serum (circulating) concentration required to inhibit hyperacute rejection / be efficacious in vivo” value (anti-αGal antibody [5]) was at least 1 mM and the “Inhibition of MAE cell cytotoxicity, in words” value ([6]; baboon serum (FIG. 4), similar results with pig PK15 cells) was “fully inhibits MAE cell cytotoxicity”. The “Concentration of αGal pentasaccharide that inhibits serum cytotoxicity of MAE cells” value ([6]; baboon serum, exogenously added oligosaccharide (FIG. 4)) was “greater than 1 mM”.
